Laboratory results taken from patent US9045248B2 (priority 2007, dated 2015).

Biological target: wild-type cap-binding domain of PB2 (Influenza A virus, UniProt P31345, R389K)
Set-up: species or system Influenza A/Victoria/3/1975(H3N2)

Structure (SMILES) | Kd [µM]
C[n+]1cn([C@@H]2O[C@H](COP(=O)(O)OP(=O)(O)OP(=O)(O)O)[C@@H](O)[C@H]2O)c2nc(N)[nH]c(=O)c21 [m^7GTP, 7-methyl-guanosine triphosphate] | 177 ± 34
Nc1nc2c(ncn2[C@@H]2O[C@H](COP(=O)(O)OP(=O)(O)OP(=O)(O)O)[C@@H](O)[C@H]2O)c(=O)[nH]1 [GTP] | 1020 ± 100
